# Experimental data reported in patent US11713315B2, “5 to 7 membered heterocyclic amides as JAK inhibitors” (priority 2018, dated 2023).
# Test: Lung S9 metabolism
# Assay type: in vitro ADME
# Settings: human lung S9; qualitative observation of O-sulfate metabolite peak
# Protocol: Lung S9 fractions from human (lot 1410245) were purchased from XenoTech LLC (Lenexa, Kans.). NADPH (Sigma Aldrich, N1630) and 3-phosphoadenosine 5-phosphosulfate (PAPS) (Sigma Aldrich, A1651) were purchased from Sigma Aldrich (St. Louis, Mo.). Acetonitrile and water were obtained from VWR (Radnor, Pa.) and were of HPLC grade or better. Raloxifene and formic acid was purchased from Sigma Aldrich (St. Louis, Mo.). Lung S9 incubations were performed in a water bath at 37° C. in a 96-well polypropylene plate. […] All samples were centrifuged at 2250 g for 10 minutes at 5° C. Supernatant […] was taken from the centrifuged samples and diluted into 1004 HPLC water containing internal standard. […] Mobile Phase A consisted of Water+0.2% formic acid and Mobile Phase B consisted of acetonitrile+0.2% formic acid. Peak integration was accomplished using Gubbs GMSU software (Gubbs Inc., Alpharetta, Ga.). For each sample, peak area ratios were calculated by dividing the analyte peak area by the internal standard peak area. […] Determination of sulfate metabolite formation was made qualitatively by observation of early-eluting peak in the parent ion channel which, based on historical internal data, corresponded to the 0-sulfate metabolite of each parent compound.
row,SMILES,Sulfate Appearance
1,"CCc1cc(O)ccc1-c1ccc2c(-c3nc4c([nH]3)CN(C)[C@H](C(=O)N3CCN(CCO)C[C@H]3C)C4)n[nH]c2c1 [Compound 5, ((S)-2-(6-(2-ethyl-4-hydroxyphenyl)-1H-indazol-3-yl)-5-methyl-4,5,6,7-tetrahydro-3H-imidazo[4,5-c]pyridin-6-yl)((R)-4-(2-hydroxyethyl)-2-methylpiperazin-1-yl)methanone]",Yes
2,"CCCN1Cc2[nH]c(-c3n[nH]c4cc(-c5ccc(O)cc5CC)ccc34)nc2C[C@H]1C(=O)N1C[C@@H]2C[C@H]1CN2C [Compound 2, ((S)-2-(6-(2-ethyl-4-hydroxyphenyl)-1H-indazol-3-yl)-5-propyl-4,5,6,7-tetrahydro-3H-imidazo[4,5-c]pyridin-6-yl)((1S,4S)-5-methyl-2,5-diazabicyclo[2.2.1]heptan-2-yl)methanone]",Yes
3,"CCCN1Cc2[nH]c(-c3n[nH]c4cc(-c5ccc(O)cc5CC)ccc34)nc2C[C@H]1C(=O)N1CCN(CCO)CC1 [Compound 1, (S)-(2-(6-(2-ethyl-4-hydroxyphenyl)-1H-indazol-3-yl)-5-propyl-4,5,6,7-tetrahydro-3H-imidazo[4,5-c]pyridin-6-yl)(4-(2-hydroxyethyl)piperazin-1-yl)methanone]",Yes
4,"CCc1cc(O)ccc1-c1ccc2c(-c3nc4c([nH]3)CN(C(C)C)[C@H](C(=O)N3CC[C@H](N(C)C)C3)C4)n[nH]c2c1 [Compound 6, ((S)-3-(dimethylamino)pyrrolidin-1-yl)((S)-2-(6-(2-ethyl-4-hydroxyphenyl)-1H-indazol-3-yl)-5-isopropyl-4,5,6,7-tetrahydro-3H-imidazo[4,5-c]pyridin-6-yl)methanone]",Yes
5,"CCc1cc(O)ccc1-c1ccc2c(-c3nc4c([nH]3)CN(C(C)C)[C@H](C(=O)N3CCCN(C)CC3)C4)n[nH]c2c1 [Compound 4, (S)-(2-(6-(2-ethyl-4-hydroxyphenyl)-1H-indazol-3-yl)-5-isopropyl-4,5,6,7-tetrahydro-3H-imidazo[4,5-c]pyridin-6-yl)(4-methyl-1,4-diazepan-1-yl)methanone]",Yes
6,"CCc1cc(O)ccc1-c1ccc2c(-c3nc4c([nH]3)CN(C)[C@H](C(=O)N3CCN(C)C[C@@H]3C)C4)n[nH]c2c1 [Compound 3, ((S)-2,4-dimethylpiperazin-1-yl)((S)-2-(6-(2-ethyl-4-hydroxyphenyl)-1H-indazol-3-yl)-5-methyl-4,5,6,7-tetrahydro-3H-imidazo[4,5-c]pyridin-6-yl)methanone]",Yes

# Now from value to compound:
row,Sulfate Appearance,SMILES
1,Yes,CCCN1Cc2[nH]c(-c3n[nH]c4cc(-c5cc(F)c(O)cc5CC)ccc34)nc2C[C@H]1C(=O)N1C[C@@H]2C[C@H]1CN2C [Compound C-2]
2,Yes,"CCc1cc(O)c(F)cc1-c1ccc2c(-c3nc4c([nH]3)CN(C)[C@H](C(=O)N3CCN(CCO)C[C@H]3C)C4)n[nH]c2c1 [Compound C-5, ((S)-2-(6-(2-ethyl-5-fluoro-4-hydroxyphenyl)-1H-indazol-3-yl)-5-methyl-4,5,6,7-tetrahydro-3H-imidazo[4,5-c]pyridin-6-yl)((R)-4-(2-hydroxyethyl)-2-methyl-piperazin-1-yl)methanone]"
3,Yes,"CCCN1Cc2[nH]c(-c3n[nH]c4cc(-c5cc(F)c(O)cc5CC)ccc34)nc2C[C@H]1C(=O)N1CCN(CCO)CC1 [Compound C-1, (S)-(2-(6-(2-ethyl-5-fluoro-4-hydroxyphenyl)-1H-indazol-3-yl)-5-propyl-4,5,6,7-tetrahydro-3H-imidazo[4,5-c]pyridin-6-yl)(4-(2-hydroxyethyl)piperazin-1-yl)methanone]"
4,Yes,CCc1cc(O)c(F)cc1-c1ccc2c(-c3nc4c([nH]3)CN(C(C)C)[C@H](C(=O)N3CC[C@H](N(C)C)C3)C4)n[nH]c2c1 [Compound C-6]
5,Yes,"CCc1cc(O)c(F)cc1-c1ccc2c(-c3nc4c([nH]3)CN(C)[C@H](C(=O)N3CCN(C)C[C@@H]3C)C4)n[nH]c2c1 [Compound C-3, ((S)-2,4-dimethylpiperazin-1-yl)((S)-2-(6-(2-ethyl-5-fluoro-4-hydroxyphenyl)-1H-indazol-3-yl)-5-methyl-4,5,6,7-tetrahydro-3H-imidazo[4,5-c]pyridin-6-yl)methanone]"
6,Yes,"CCc1cc(O)c(F)cc1-c1ccc2c(-c3nc4c([nH]3)CN(C(C)C)[C@H](C(=O)N3CCCN(C)CC3)C4)n[nH]c2c1 [Compound C-4, (S)-(2-(6-(2-ethyl-5-fluoro-4-hydroxyphenyl)-1H-indazol-3-yl)-5-isopropyl-4,5,6,7-tetrahydro-3H-imidazo[4,5-c]pyridin-6-yl)(4-methyl-1,4-diazepan-1-yl)methanone]"
